Several values for one entry are separate records, joined by “and”; a condition that tells them apart may be missing. Equal values may be shown once. Entries after “also recorded” stand apart in the source; their conditions may differ.
Key:
[1] = tested on: p53^ER/ER;LSLKRas^G12D;pdx1-Cre mice; assay: Histology, immunohistochemistry and Picrosirius Red collagen staining of pancreata from PDAC model mice treated for 4 weeks; assay type: in vivo, mouse; conditions: for Collagen deposition (Picrosirius Red Staining): intraperitoneal daily injection of 10 mg per kg for 4 weeks from 8 weeks of age, compared to vehicle-treated control
Description: (§1) For immunohistochemical analyses, tissue samples were fixed overnight in neutral pH-buffered formalin, embedded in paraffin and sectioned (5 μm). Sections were then deparaffinized, rehydrated and microwaved for 1 min in 0.01 M citrate buffer (pH 6.0) for antigen retrieval. Primary antibodies (rat monoclonal anti-CD11b (clone M1/70), eBioscience; rabbit monoclonal anti-Ki67 (clone SP6), Neomarkers) were applied for 2 h in blocking buffer (2.5% BSA, 5% goat serum and 0.3% Triton X-100 in PBS), followed by Vectastain ABC kit and DAB reagents (Vector Laboratories). Images were obtained with an Axiovert S100 TV inverted fluorescence microscope (Zeiss) and Open Lab 3.5.1 software, or with an Axiovert 100 inverted microscope (Zeiss) equipped with a Hamamatsu Orca digital camera. The mast cells were identified using 1% toluidine blue dissolved in ethanol. Picrosirius Red stain kit (Polysciences, Inc.) was used to stain for collagen Types I and III according to manufacturer instructions.
For all experiments, 8 week old male and female p53^ER/ER;LSLKRas^G12D;pdx1-Cre mice of mixed C57BL/6-FVB/N background were randomized into two groups: treated and control. Ibrutinib (0.16 mg/mL with 1% 2-Hydroxypropyl-beta-cyclodextrin (HP-β-CD)) was added to the drinking water of treated animals, and control animals received water containing vehicle only (1% HP-β-CD). Gemcitabine (75 mg/kg) was injected intraperitoneally twice a week for 3 weeks followed by a 1-week rest period. Sodium cromoglycate ([…]) was dissolved in saline solution and injected intraperitoneally, and control mice were treated with vehicle only. Endpoint criteria were defined as 20% body weight loss in addition to general morbidity and lethargy caused by tumor burden. Mice euthanized due to intestinal metaplasia or mucocutaneous papillomas caused by extrapancreatic KRAS^G12D expression were excluded from the survival study.
A p53^ER/ER;LSLKRas^G12D;pdx1-Cre mouse model that harbors a Cre-activated KRasG12D allele inserted into the endogenous KRas locus combined with pancreas-specific PDX-1-driven Cre recombinase activity was used. The disruption of Trp53 signaling in combination with KRas mutation leads to rapid tumorigenesis and histopathological features typical of human pancreatic adenocarcinoma within only 8 weeks. At this stage the animals were treated with ibrutinib, at a dose of 25 mg/Kg/day added to their drinking water, or with vehicle control. The animals were euthanized 4 weeks later and their pancreata harvested for analysis. […] In stained, vehicle-treated mast cells, the cell borders were broken and the content of their granules were released. […] Reasons for this phenomenon can include the fact that several chemokines produced by mast cells, such as IL6, are known to be potent stimulants for monocytic cell migration and macrophage activation, so that inhibiting mast cells could prevent their recruitment.
In order to verify that this effect on fibrosis was specifically due to mast cell interference, two independent control experiments were performed. In the first experiment, sodium cromoglycate (cromolyn), a well-characterized blocker of mast cell degranulation and inflammogen release was used. The p53^ER/ER;LSLKRas^G12D ,pdx1-Cre mice were treated intraperitoneally (i.p.) with a daily injection of 10 mg per kg (bodyweight) of cromolyn, starting at 8 weeks of age. The animals were euthanized 4 weeks later and their pancreata analysed.

[2] = tested on: p53^ER/ER;LSLKRas^G12D;pdx1-Cre mice; assay: Survival study in PDAC model mice (Kaplan-Meier, Log-rank test); assay type: in vivo, mouse; conditions: treatment starting from 8 weeks of age; Log-rank p value=0.015
Description: For all experiments, 8 week old male and female p53^ER/ER;LSLKRas^G12D;pdx1-Cre mice of mixed C57BL/6-FVB/N background were randomized into two groups: treated and control. Ibrutinib (0.16 mg/mL with 1% 2-Hydroxypropyl-beta-cyclodextrin (HP-β-CD)) was added to the drinking water of treated animals, and control animals received water containing vehicle only (1% HP-β-CD). Gemcitabine (75 mg/kg) was injected intraperitoneally twice a week for 3 weeks followed by a 1-week rest period. Sodium cromoglycate (10/kg) was dissolved in saline solution and injected intraperitoneally, and control mice were treated with vehicle only. Endpoint criteria were defined as 20% body weight loss in addition to general morbidity and lethargy caused by tumor burden. Mice euthanized due to intestinal metaplasia or mucocutaneous papillomas caused by extrapancreatic KRAS^G12D expression were excluded from the survival study.
Statistical analysis was carried out by two-tailed Mann-Whitney test (for IHC counts), two tailed unpaired t-test (for flow cytometry data) and Log-Rank test (for Kaplan-Meier survival curves). […] Statistical analysis was performed using GraphPad Prism 4.
Two independent survival experiments were undertaken to test the therapeutic impact of ibrutinib alone and to assess ibrutinib in combination with gemcitabine.

[3] = tested on: p53^ER/ER;LSLKRas^G12D;pdx1-Cre mice; assay: Flow cytometry of single cell suspensions of PDAC tumors from treated mice; assay type: in vivo, mouse; conditions: ibrutinib 25 mg/Kg/day in drinking water, 4 weeks
Description: Following resection, PDAC tumors isolated from PBS-perfused mice were immediately placed in ice-cold PBS, followed by manual mincing using scissors and a 20 min enzymatic digestion with 1.25 mg/mL collagenase type IV (Roche), 0.1% trypsin inhibitor, and 50 U/ml DNase I (Roche) in serum-free Dulbecco's Modified Eagle's Medium (DMEM) (Invitrogen) at 37° C. with continuous stirring. Single cell suspensions were then prepared by passing tissue through 70 μm nylon strainers (BD Biosciences). Cells were incubated for 30 min at 4° C. with rat anti-mouse CD16/CD32 mAb (1:250, clone 2.4G2, BD Bioscience) in PBS, which also contained Live/Dead Aqua stain (1:250, Invitrogen) to differentiate between viable and dead cells. Cells were then incubated for 30 min in PBS containing 1.0% BSA (Sigma) and 2 mM EDTA with 100 μl of fluorophore-conjugated anti-mouse antibodies (dilution; clone): PE-Cy7-CD45 (1:800; 30-F11), PerCp-Cy5.5-CD3e (1:400; 145-2C11), PerCp-Cy5.5-CD19 (1:200; 6D5), PerCp-Cy5.5-CD49b (1:400; DX5), Alexa 700-CD11b (1:400; M1/70), APC780-CD11c (1:200; N418), eFluor450-MHCII (1:800; M5/114.15.2), APC-Ly6C (1:800; HK1.4), PE-Ly6G (1:400; 1A8), and PE-Cy5-F4/80 (1:400; BM8) (eBioscience or Biolegend). Cells were then washed once in PBS containing 1.0% BSA (Sigma) and 2 mM EDTA, followed by fixation with BD Cytofix for 30 min on ice. […]

[4] = tested on: subcutaneous xenografts of a patient derived tumor in NOD/SCID mice; assay: Collagen deposition in subcutaneous xenografts of a patient-derived tumor (PDX) in NOD/SCID mice; assay type: in vivo, mouse; conditions: NOD/SCID mice with patient-derived xenograft, ibrutinib-treated vs untreated
Description: as §1
NOD/SCID mice were purchased from Charles River Laboratory. The anonymized human sample employed was part of the tissue biological material of the University Hospital Vall d'Hebron. […] Tumor size was evaluated weekly by caliper measurements and tumor volume calculated using the following formula: […]

[5] = tested on: mast cell; conditions: mouse model of insulinoma; background statement; cited from earlier work

| Structure (SMILES) | Collagen deposition (Picrosirius Red Staining) [1] | Collagen deposition (Picrosirius Red Staining) ([1]; listed as sodium cromoglicate) | Survival, monotherapy vs vehicle control [2] | F4/80 positive macrophages (tumor-associated macrophages) by FACS analysis ([3]; FIG. 1C right panel) | CD11b+ cells by FACS analysis ([3]; percent of total cells, FIG. 1C left panel) | Collagen deposition / tissue fibrosis in tumor stroma (Picrosirius Red Staining) [4] | Systemic mast cell blocking [5] | Ki67 positive (proliferating) cells in pancreata / proliferation rate ([1]; ibrutinib 25 mg/Kg/day in drinking water for 4 weeks from 8 weeks of age, IHC, vehicle control 67.8%, p value=0.0016) | Mast cell degranulation in tumor stroma (toluidine blue staining) ([1]; ibrutinib 25 mg/Kg/day in drinking water, 4 weeks) | Amount of collagen in tumors (Picrosirius Red Staining) ([1]; ibrutinib 25 mg/Kg/day in drinking water, 4 weeks, compared to vehicle-treated animals) | CD11b positivity by immunohistochemistry ([1]; ibrutinib 25 mg/Kg/day in drinking water, 4 weeks, compared to vehicle-treated mice) |
| --- | --- | --- | --- | --- | --- | --- | --- | --- | --- | --- | --- |
| O=C(O)c1cc(=O)c2c(OCC(O)COc3cccc4oc(C(=O)O)cc(=O)c34)cccc2o1 [cromolyn, sodium cromoglycate, reference compound] | reduced collagen deposition | recapitulated the antifibrotic effect |  |  |  |  |  |  |  |  |  |
| C=CC(=O)N1CCC[C@@H](n2nc(-c3ccc(Oc4ccccc4)cc3)c3c(N)ncnc32)C1 [ibrutinib, (R)-1-(3-(4-amino-3-(4-phenoxyphenyl)-1H-pyrazolo[3,4-d]pyrimidin-1-yl)piperidin-1-yl)prop-2-en-1-one] |  |  | significant survival advantage; also recorded: confers survival advantage | significant reduction | confirmed by FACS analysis | reduction in tissue fibrosis; also recorded: reduction of collagen deposition | potent systemic mast cell blocker | 14.9±7.0% and 14.9% | efficiently inhibited | reduced the amount of collagen | affected; also recorded: clear reduction of CD11b positivity |
